Among the data in patent US20240376085A1 (Janssen Pharmaceutica NV, priority 2021, published 2024) are IC50 values, retold here.

Test [1] deals with IL-17A-induced G-CSF production in human normal keratinocyte (NHK). Briefly: NHK assay: IL-17A-induced G-CSF production in normal human keratinocytes. Format: cell-based. The conditions noted are these: 24 h, IL-17A 5 ng/mL, average if tested more than once. An outline of the steps: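 Compound titrations are first mixed with recombinant human IL-17A for 1 h at room temperature. The mixture goes onto adult normal human keratinocytes (final IL-17A 5 ng/mL, 5% FBS, 0.2% DMSO) for 24 h at 37 °C. Secreted G-CSF is then measured by HTRF and IC50 fitted.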

The next test deals with T1, IL-17A : IL-17RA binding (Homo sapiens, UniProt Q16552, K93Q).
T1 construct: Name: IL-17A-Flag
Briefly: IL-17A(FLAG-tagged):IL-17RA(His-tagged) binding disruption Eu-HTRF assay, Protocol 1. The conditions noted are these: FLAG-IL-17A 2.5 nM at 2x final concentration; average if tested more than once. Summed up: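 IC50 came from a one-site competition fit of the acceptor/donor (665/620 nm) HTRF ratio. His-tagged IL-17RA, Eu-anti-FLAG and D2-anti-His were added after a 1 h rt compound preincubation with FLAG-tagged IL-17A dimer in PBS/0.01% Triton X-100, followed by 2 h at rt before reading.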
On the technique in general: In TR-FRET formats the signal depends on donor and acceptor labels being close together.

T1 sequence (Q16552 with tags, fused parts or gaps K93Q): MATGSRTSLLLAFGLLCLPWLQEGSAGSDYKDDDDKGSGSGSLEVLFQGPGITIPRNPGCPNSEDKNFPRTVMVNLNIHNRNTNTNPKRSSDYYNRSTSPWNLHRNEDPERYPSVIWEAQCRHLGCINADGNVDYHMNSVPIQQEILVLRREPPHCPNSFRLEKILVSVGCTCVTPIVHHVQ

In general, IC50 refers to the concentration that gives 50% inhibition. High values mean weaker potency in that assay, low ones greater potency in that assay. As to `CC(CC(=O)N[C@@H](c1ccc2nc([C@H](CC(C)(C)C(F)(F)F)NC(=O)c3nonc3C3CC3)[nH]c2c1)C1CC1)C(F)(F)F` (single isomer, unassigned) [Example 181, 4-Cyclopropyl-N—((S)-1-(6-((R)-cyclopropyl((R*)-4,4,4-trifluoro-3-methylbutanamido)methyl)-1H-benzo[d]imidazol-2-yl)-4,4,4-trifluoro-3,3-dimethylbutyl)-1,2,5-oxadiazole-3-carboxamide], the IC50 in test [1] (Homo sapiens, Keratinocyte) is less than 50 nM; at IL-17A : IL-17RA binding, less than 50 nM.
With `C[C@@H](NC(=O)CCC(F)(F)F)c1ccc2[nH]c([C@@H](NC(=O)c3cnnn3CCOC(F)F)C3CCC(F)(F)CC3)nc2c1` [Example 34, N—[(S)-(4,4-Difluorocyclohexyl)-[6-[(1R)-1-(4,4,4-trifluorobutanoylamino)ethyl]-1H-benzimidazol-2-yl]methyl]-3-[2-(difluoromethoxy)ethyl]triazole-4-carboxamide], the IC50 is 50 to 100 nM in test [1] (Homo sapiens, Keratinocyte) and greater than 100 nM on IL-17A : IL-17RA binding.
Take `CCCC(NC(=O)CCC(F)(F)F)c1ccc2[nH]c([C@@H](NC(=O)c3ccnn3C)C3CCC(F)(F)CC3)nc2c1` (single isomer, unassigned) [Example 51, N—((S)-(4,4-Difluorocyclohexyl)(5-((R*)-1-(4,4,4-trifluorobutanamido)butyl)-1H-benzo[d]imidazol-2-yl)methyl)-1-methyl-1H-pyrazole-5-carboxamide]: the results for the IC50 (in test [1]; on IL-17A : IL-17RA binding) were 50 to 100 nM and greater than 100 nM, respectively.
On to `Cc1nonc1C(=O)N[C@H](c1nc2cc([C@H](NC(=O)CC3CC(F)(F)C3)C3CC3)ccc2[nH]1)C1CCC(F)(F)CC1` [Example 141, N—((S)-(5-((R)-Cyclopropyl(2-(3,3-difluorocyclobutyl)acetamido)methyl)-1H-benzo[d]imidazol-2-yl)(4,4-difluorocyclohexyl)methyl)-4-methyl-1,2,5-oxadiazole-3-carboxamide], for which the IC50 in test [1] (Homo sapiens, Keratinocyte) was less than 50 nM; on IL-17A : IL-17RA binding, less than 50 nM.
Regarding `C[C@@H](NC(=O)CCC(F)(F)F)c1ccc2[nH]c([C@@H](NC(=O)c3cnn(CCOC(F)(F)F)c3)C3CCC(F)(F)CC3)nc2c1` [Example 26, N—[(S)-(4,4-Difluorocyclohexyl)-[6-[(1R)-1-(4,4,4-trifluorobutanoylamino)ethyl]-1H-benzimidazol-2-yl]methyl]-1-[2-(trifluoromethoxy)ethyl]pyrazole-4-carboxamide], the IC50 was greater than 100 nM in test [1] (Homo sapiens, Keratinocyte) and greater than 100 nM on IL-17A : IL-17RA binding.
For `CC(C)n1nccc1C(=O)NC(CO[C@H](C)C(F)(F)F)c1nc2ccc([C@H](NC(=O)CC3CC(F)(F)C3)C3CC3)cc2[nH]1` (single isomer, unassigned) [Example 157, N—((R*)-1-(6-((R)-Cyclopropyl(2-(3,3-difluorocyclobutyl)acetamido)methyl)-1H-benzo[d]imidazol-2-yl)-2-(((R)-1,1,1-trifluoropropan-2-yl)oxy)ethyl)-1-isopropyl-1H-pyrazole-5-carboxamide], the IC50 in test [1] (Homo sapiens, Keratinocyte) is 50 to 100 nM; on IL-17A : IL-17RA binding, less than 50 nM.
On the same counts, the results for `COCCn1nncc1C(=O)N[C@H](c1nc2cc([C@@H](C)NC(=O)CCC(F)(F)F)ccc2[nH]1)C1CCC(F)(F)CC1` [Example 15, N—[(S)-(4,4-Difluorocyclohexyl)-[6-[(1R)-1-(4,4,4-trifluorobutanoylamino)ethyl]-1H-benzimidazol-2-yl]methyl]-3-(2-methoxyethyl)triazole-4-carboxamide] are greater than 100 nM and greater than 100 nM.
As to `[2H]C([2H])([2H])n1nccc1C(=O)N[C@@H](COC(C)(C)C(F)(F)F)c1nc2cc([C@H](NC(=O)CC3CC(F)(F)C3)C3CC3)ccc2[nH]1` [Example 167, N—((R)-1-(5-((R)-Cyclopropyl(2-(3,3-difluorocyclobutyl)acetamido)methyl)-1H-benzo[d]imidazol-2-yl)-2-((1,1,1-trifluoro-2-methylpropan-2-yl)oxy)ethyl)-1-(methyl-d3)-1H-pyrazole-5-carboxamide], the IC50 in test [1] (Homo sapiens, Keratinocyte) fell in the range of 50 to 100 nM; on IL-17A : IL-17RA binding, 50 to 100 nM.
As to `CC(C)n1nccc1C(=O)N[C@H](c1nc2ccc([C@H](NC(=O)CC3CC(F)(F)C3)C3CC3)cc2[nH]1)C1CCC(F)(F)CO1` (single isomer, unassigned) [Example 262, N—((R)-(6-((R)-Cyclopropyl(2-(3,3-difluorocyclobutyl)acetamido)methyl)-1H-benzo[d]imidazol-2-yl)((R*)-5,5-difluorotetrahydro-2H-pyran-2-yl)methyl)-1-isopropyl-1H-pyrazole-5-carboxamide], the IC50 was less than 50 nM in test [1] and greater than 100 nM at IL-17A : IL-17RA binding.
Consider `C[C@@H](NC(=O)CCC(F)(F)F)c1ccc2[nH]c([C@@H](NC(=O)c3cn(CC4CC(F)(F)C4(F)F)nn3)C3CCC(F)(F)CC3)nc2c1` (stereo partly drawn) [Example 84, N—((S)-(4,4-Difluorocyclohexyl)(5-((R)-1-(4,4,4-trifluorobutanamido)ethyl)-1H-benzo[d]imidazol-2-yl)methyl)-1-((2,2,3,3-tetrafluorocyclobutyl)methyl)-1H-1,2,3-triazole-4-carboxamide], for which the IC50 in test [1] (Homo sapiens, Keratinocyte) is greater than 100 nM; at IL-17A : IL-17RA binding, greater than 100 nM.
On to `CC(OCC(NC(=O)c1nonc1C1CC1)c1nc2ccc([C@H](NC(=O)CC3CC(F)(F)C3)C3CC3)cc2[nH]1)C(F)(F)F` (single isomer, unassigned) [Example 153, 4-Cyclopropyl-N-((1R*)-1-(6-((R)-cyclopropyl(2-(3,3-difluorocyclobutyl)acetamido)methyl)-1H-benzo[d]imidazol-2-yl)-2-((1,1,1-trifluoropropan-2-yl)oxy)ethyl)-1,2,5-oxadiazole-3-carboxamide], for which the IC50 in test [1] (Homo sapiens, Keratinocyte) was greater than 100 nM; on IL-17A : IL-17RA binding it was less than 50 nM.
The corresponding values for `C[C@@H](NC(=O)CCC(F)(F)F)c1ccc2nc([C@@H](NC(=O)c3cnn(CC4CC(F)(F)C4)n3)C3CCC(F)(F)CC3)[nH]c2c1` [Example 64, 2-((3,3-Difluorocyclobutyl)methyl)-N—((S)-(4,4-difluorocyclohexyl)(6-((R)-1-(4,4,4-trifluorobutanamido)ethyl)-1H-benzo[d]imidazol-2-yl)methyl)-2H-1,2,3-triazole-4-carboxamide] are greater than 100 nM and greater than 100 nM.
Take `Cc1nonc1C(=O)N[C@@H](CC(C)(C)C(F)(F)F)c1nc2cc([C@H](NC(=O)CCC(F)(F)F)C3CC3)ccc2[nH]1` (relative stereo) [Example 193, N—((S*)-1-(5-((R*)-Cyclopropyl(4,4,4-trifluorobutanamido)methyl)-1H-benzo[d]imidazol-2-yl)-4,4,4-trifluoro-3,3-dimethylbutyl)-4-methyl-1,2,5-oxadiazole-3-carboxamide]: the 50% inhibitory concentration (IC50) was 50 to 100 nM in test [1] (Homo sapiens, Keratinocyte) and less than 50 nM at IL-17A : IL-17RA binding.
On the same counts, the results for `CCCC(NC(=O)CCC(F)(F)F)c1ccc2[nH]c([C@@H](NC(=O)c3ccnn3C)C3CCC(F)(F)CC3)nc2c1` (single isomer, unassigned) [Example 50, N—((S)-(4,4-Difluorocyclohexyl)(5-((S*)-1-(4,4,4-trifluorobutanamido)butyl)-1H-benzo[d]imidazol-2-yl)methyl)-1-methyl-1H-pyrazole-5-carboxamide] are greater than 100 nM and greater than 100 nM.
`C[C@@H](NC(=O)CCC(F)(F)F)c1ccc2[nH]c([C@@H](NC(=O)C3CC34CCC4)C3CCC(F)(F)CC3)nc2c1` (stereo partly drawn) [Example 111, N—((S)-(4,4-Difluorocyclohexyl)(5-((R)-1-(4,4,4-trifluorobutanamido)ethyl)-1H-benzo[d]imidazol-2-yl)methyl)spiro[2.3]hexane-1-carboxamide]: the IC50 in test [1] (Homo sapiens, Keratinocyte) is greater than 100 nM; on IL-17A : IL-17RA binding, greater than 100 nM.
Take `CC(CC(=O)N[C@@H](c1ccc2[nH]c([C@H](COC(C)(C)C(F)(F)F)NC(=O)c3nonc3C3CC3)nc2c1)C1CC1)C(F)F` (single isomer, unassigned) [Example 176, 4-Cyclopropyl-N—((R)-1-(5-((R)-cyclopropyl((S*)-4,4-difluoro-3-methylbutanamido)methyl)-1H-benzo[d]imidazol-2-yl)-2-((1,1,1-trifluoro-2-methylpropan-2-yl)oxy)ethyl)-1,2,5-oxadiazole-3-carboxamide]: the IC50 in test [1] was greater than 100 nM; at IL-17A : IL-17RA binding, less than 50 nM.
Take `Cc1c(C(=O)N[C@H](c2nc3ccc([C@@H](C)NC(=O)CCC(F)(F)F)cc3[nH]2)C2CCC(F)(F)CC2)cnn1CC(F)F` [Example 28, N—[(S)-(4,4-Difluorocyclohexyl)-[6-[(1R)-1-(4,4,4-trifluorobutanoylamino)ethyl]-1H-benzimidazol-2-yl]methyl]-1-(2,2-difluoroethyl)-5-methyl-pyrazole-4-carboxamide]: the IC50 was greater than 100 nM in test [1] (Homo sapiens, Keratinocyte) and greater than 100 nM on IL-17A : IL-17RA binding.
As for `C[C@@H](NC(=O)CCC(F)(F)F)c1ccc2[nH]c([C@@H](NC(=O)c3conc3CCC(F)(F)F)C3CCC(F)(F)CC3)nc2c1` [Example 214, N—((S)-(4,4-Difluorocyclohexyl)(5-((R)-1-(4,4,4-trifluorobutanamido)ethyl)-1H-benzo[d]imidazol-2-yl)methyl)-3-(3,3,3-trifluoropropyl)isoxazole-4-carboxamide], the IC50 was less than 50 nM in test [1] (Homo sapiens, Keratinocyte) and 50 to 100 nM on IL-17A : IL-17RA binding.
